The values that follow come from patent US4614740A, “5H-2,3-benzodiazepine derivatives and pharmaceutical compositions containing the same” (Egis Gyogyszergyar, priority 1984, dated 1986).

The subject of assay [1] is mice. Nature of the assay: antiaggressive effect, "fighting behaviour" test. In kind it is in vivo. The settings on record: for ED50: Mus musculus, po; for Relative activity: antiaggressive effect, p.o., tofizopam = 1.0. The source says: The antiaggressive effect was studied on mice by the so-called "fighting behaviour" test [J. Pharm. Exp. Ther. 125, 28 (1959)]. Tofizopam and 1-(3-chlorophenyl)-4-methyl-7,8-dimethoxy-5H-2,3-benzodiazepine were used as reference agents.

Assay [2] deals with mice. The assay can be described thus: narcosis potentiating effect (sodium hexobarbital narcosis). In kind it is in vivo. As to conditions: Mus musculus, po, 50 mg/kg sodium hexobarbital i.v., limits between slashes, read-out: ED50 (dose increasing the narcosis period of half of the test animals to double). The protocol:
The narcosis potentiating effect was studied on mice. The compounds were administered in 3 or 4 oral doses to 15-20 animals per dose. Narcosis was induced with 50 mg/kg of sodium hexobarbital injected intravenously into the animals. The ED50 value is the dose increasing the narcosis period of half of the test animals to double.

In assay [3] the test system is mice from the CFLP strain. The assay can be described thus: spontaneous motor activity, motimeter of Animex type. In kind it is in vivo. As to conditions: Mus musculus, po, 2 hours registration, Litchfield and Wilcoxon, limits between slashes, read-out: ED50 value (dose decreasing the spontaneous motor activity to half). The method, then: The spontaneous motor activity was measured on a motimeter of Animex type. Groups of animal consisting of 3 mice from the CFLP strain weighing 20 to 23 g were starved for 24 hours and put to the apparatus. After a previous treatment of 10 minutes the amount of movements was registered continuously for 2 hours. The dose decreasing the spontaneous motor activity to half in comparison with the control group treated with vehiculum was determined.
The ED50 values were calculated by the method of Litchfield and Wilcoxon [J. Pharmacol. Exp. Ther. 96, 99 1949].

Assay [4] is described as follows: anxiolytic effect, Vogel lick-conflict test. In kind it is in vivo. The protocol: The anxiolytic effect was determined by the method of Vogel lick-conflict test/[Psychopharmacol. 21, 1 1979]. Tofizopam, 1-(3-chlorophenyl)-4-methyl-7,8-dimethoxy-5H-2,3-benzodiazepine and Chlorodiazepoxide 7-chloro-2-methylamino-5-phenyl-3H-1,4-benzodiazepine-4-oxide were used as reference agents.

The subject of assay [5] is mice. The assay can be described thus: hypnotic activity in mice (HD50). Type of assay: in vivo. The settings on record: for ED50: Mus musculus, mice.
For assay [6], the system named is rats. The assay can be described thus: hypnotic activity in rats (HD50). Type of assay: in vivo. The settings on record: Rattus norvegicus, iv.
A short description of assay [7]: muscle relaxant activity, "inclined screen" test. In kind it is in vivo.
Assay [8] is described as follows: muscle relaxant activity, rotarod test. In kind it is in vivo. The settings on record: ip, read-out: ED50, rotarod test. For orientation: Falling from the rotarod earlier than controls is read as motor impairment.
The conditions of assay [9]: tofizopam used in the therapy; cited from earlier work.

On to `COc1cc2c(cc1OC)C(C)C(C)=NN=C2c1ccc(N)cc1` (stereo not drawn) [Example 11, 1-(4-Aminophenyl)-4,5-dimethyl-7,8-dimethoxy-5H-2,3-benzodiazepine], for which, in assay [1], the 50% effective dose (ED50) (in general, the dose that gives a 50% effect, or the effect in half of the subjects) came out at 16 mg/kg and the Relative activity is listed as 4.6.
Regarding `COc1cc2c(cc1OC)C(c1ccc(C)c(N)c1)=NN=C(C)C2` [Example 15, 1-(3-Amino-4-methylphenyl)-4-methyl-7,8-dimethoxy-5H-2,3-benzodiazepine], the values for the 50% effective dose (ED50) in assay [2], in assay [1] and in [3] were 25 mg/kg, 17 mg/kg and 9.7 mg/kg, respectively. This molecule yielded a Relative activity in [1] of 3.8.
Turning to `COc1cc2c(cc1OC)C(c1cccc(N)c1)=NN=C(C)C2` [Example 2, 1-(3-Aminophenyl)-4-methyl-7,8-dimethoxy-5H-2,3-benzodiazepine], the figures for the ED50 in assay [2], in [1] and in [3] were 8.2 mg/kg, 12.5 mg/kg and 1.3 mg/kg, respectively. The Relative activity in assay [1] came to 5.1. The “Number of electric shocks tolerated” value in assay [4] (10 mg/kg i.p.) came to 4.2 ± 0.7; in assay [4] (25 mg/kg i.p.), 15.1 ± 1.9.
In the case of `O=C1CN=C(c2ccccc2)c2cc([N+](=O)[O-])ccc2N1` [Nitrazepam, 7-nitro-5-phenyl-1,3-dihydro-2H-1,4-benzodiazepin-2-one, reference compound], the ED50 in assay [5] (ip) came out at 150 mg/kg; in [5] (iv), 75 mg/kg; in assay [5] (po), 185 mg/kg; in assay [6], 96 mg/kg.
As for `CC1=NN=C(c2ccc(N)cc2)c2cc3c(cc2C1)OCO3` [Example 8, 1-(4-aminophenyl)-4-methyl-7,8-methylenedioxy-5H-2,3-benzodiazepine], the 50% effective dose (ED50) in assay [2] is 7.4 mg/kg; in assay [5] (ip), 70 mg/kg; in [5] (iv) it was 40 mg/kg; in [5] (po) it was 140 mg/kg; in assay [7] (ip, read-out: ED50, inclined screen test) it was 47 mg/kg; in assay [8] it was 24 mg/kg. Also, the ED50 in assay [3] stood at 48 mg/kg; in assay [6] it was 40 mg/kg. Besides, the “hypnotic activity (in words)” value in assay [5] (mice and rats) is reported as “significant hypnotic activity”. Also, the “muscle relaxant activity (in words)” value in assay [7] (versus Zoxazolamine, inclined screen and rotarod) was “more potent than the reference substance Zoxazolamine”.
`CCC1C(C)=NN=C(c2ccc(OC)c(OC)c2)c2cc(OC)c(OC)cc21` (stereo not drawn) [Tofizopam, 1-(3,4-dimethoxyphenyl)-4-methyl-5-ethyl-7,8-dimethoxy-5H-2,3-benzodiazepine, reference compound]: the 50% effective dose (ED50) in assay [2] was determined as 38 mg/kg; in assay [1] it was 74 mg/kg; in [3], 22 mg/kg. This molecule also had a Relative activity in [1] of 1.0. In addition, the “Number of electric shocks tolerated” value in assay [4] (25 mg/kg i.p.) is recorded as 3.6 ± 0.4; in assay [4] (50 mg/kg i.p.), 19.8 ± 3.7. Besides, in assay [9], the “further central nervous character (in words), reference drug” value is recorded as “in addition to the anxiolytic effect, a weak antidepressant activity”.
Take `COc1cc2c(cc1OC)C(c1cccc(Cl)c1)=NN=C(C)C2` [1-(3-chlorophenyl)-4-methyl-7,8-dimethoxy-5H-2,3-benzodiazepine, reference compound]: the values for the median effective dose (ED50) in [2], in [1] and in assay [3] were 16 mg/kg, 16 mg/kg and 6.2 mg/kg, respectively. The Relative activity in assay [1] was determined as 4.6. Besides, the “Number of electric shocks tolerated” value stood at 9.9 ± 2.8 in assay [4] (25 mg/kg i.p.) and 19.0 ± 2.3 in [4] (50 mg/kg i.p.).
As to `COc1cc2c(cc1OC)C(c1ccc(N)cc1)=NN=C(C)C2` [Example 1, 1-(4-aminophenyl)-4-methyl-7,8-dimethoxy-5H-2,3-benzodiazepine], the figures for the ED50 in [2], in assay [1] and in [3] were 4.8 mg/kg, 8.1 mg/kg and 3.2 mg/kg, respectively. In assay [1], the Relative activity came to 7.9. Further, the “Number of electric shocks tolerated” value was found to be 4.1 ± 0.7 in [4] (2.5 mg/kg i.p.), 13.9 ± 2.7 in assay [4] (5 mg/kg i.p.) and 19.7 ± 2.9 in [4] (10 mg/kg i.p.).
For the molecule `COc1cc2c(cc1OC)C(c1ccc(N)c(C)c1)=NN=C(C)C2` [Example 10, 1-(3-Methyl-4-aminophenyl)-4-methyl-7,8-dimethoxy-5H-2,3-benzodiazepine], the 50% effective dose (ED50) is 7.4 mg/kg in assay [2], 9.1 mg/kg in assay [1] and 4.4 mg/kg in [3]. In [1], this molecule registered a Relative activity of 7.0.
As to `COc1cc2c(cc1OC)C(c1ccc(N)c(Cl)c1)=NN=C(C)C2` [Example 18, 1-(3-Chloro-4-aminophenyl)-4-methyl-7,8-dimethoxy-5H-2,3-benzodiazepine], the ED50 was 7.6 mg/kg in assay [2] and 7.9 mg/kg in [1]. Moreover, the Relative activity in assay [1] was determined as 8.1. The “Number of electric shocks tolerated” value in assay [4] (2.5 mg/kg i.p.) came out at 7.6 ± 3.0; in [4] (5 mg/kg i.p.) it was 8.3 ± 1.0.
For the molecule `CNC1=Nc2ccc(Cl)cc2C(c2ccccc2)=[N+]([O-])C1` [Chlorodiazepoxide, 7-chloro-2-methylamino-5-phenyl-3H-1,4-benzodiazepine-4-oxide, reference compound], the figures for the “Number of electric shocks tolerated” value in [4] (5 mg/kg i.p.) and in assay [4] (10 mg/kg i.p.) were 9.7 ± 3.7 and 27.5 ± 2.5, respectively.
